Reference: US11821892B2, “Nanobubbles” (Purdue Research Foundation, priority 2014, dated 2023)

Tests used:
[1] = test system: MB49 bladder tumor; details: MMC 1 μg/mL; ONB-MMC 0.5 μg/mL MMC and 2 mg/mL ONB; intravesical
Text: (§3) Female C57BL/6 mice were anesthetized by 1-2% isoflurane gas inhalation at 2 L/min. Electrocauterization technique was used to create a minor injury on the wall of the bladder for MB49 cells to adhere to. A 24 gauge Teflon catheter (Terumo Surflo PTFE I.V. Catheters, Fisher Scientific) was inserted into the bladder through the urethra. Minor pressure was applied onto the bladder area to release the urine from the bladder. A wire, connected to the electrocautery unit was then instilled into the bladder through the catheter. 1×10^4 MB49 cells were then instilled into the bladder; dwelling time was approximately 20 minutes to allow the cells to adhere to the injured bladder wall.
(§4) After the bubbles were injected intravesically, a pulsed wave Doppler beam was applied for five minutes and B-mode images were recorded.
(§5) The mice were imaged 48 hours after the instillation of the tumors and treatment was administered every other day based on previously established protocols.
(§6) 3D images of bladder tumor were taken every other day using the Vevo 2100 ultrasound imaging system (Fujifilm VisualSonics Inc., Toronto CA). Vevo Lab software was used to manually segment given 3D images in 2D slices, with step sizes that can be as small as 10 μm. Segmentation of a 3D image allowed accurate volume measurements to be taken from each 3D image. […]

[2] = test system: MB49 bladder tumor; assay: Intravesical treatment with ultrasound beam steering in orthotopic MB49 bladder cancer mouse model; details: in vivo
Text: as §3, §4, §5, §6

[3] = test system: HIF-1; assay: Immunohistochemistry of mouse bladder tumors, HIF-1; assay type: in vivo; details: ex vivo mouse bladder tumor, compared to control
Experimental: (§1) Histology slides were prepared and immunohistochemistry was performed at Immunohistochemistry Laboratory at IU Health Pathology. Harvested organ tissue and bladder tumors were fixed in formalin-free IHC Zinc Fixative, embedded in paraffin, and sectioned into 5 μm slices. HIF-1 and VEGF immunohistochemistry was performed using buffered zinc formalin fixed tumor section. Blocking, antigen retrieval, and primary and secondary antibody staining were performed […]. The tissue sections were imaged using Leica DMi1 inverted microscope, and image processing was performed using ImageJ software (Research Services, National Institute of Health). Each tissue section was imaged under ×20 and ×40 magnification, composite images were converted to RGB stacks and integrated density of staining was calculated.
(§2) Angiogenesis and high density of blood vessels has been correlated with poor prognosis, metastasis, and bladder cancer invasion in clinical studies.

[4] = test system: VEGF; assay: Immunohistochemistry of mouse bladder tumors, VEGF; assay type: in vivo; details: ex vivo mouse bladder tumor, compared to control
Experimental: as §1, §2

[5] = test system: MB49 cells; assay: In vitro beam steering factorial design, MB49 cell viability; assay type: cell-based, mouse

CO[C@@]12[C@H](COC(N)=O)C3=C(C(=O)C(C)=C(N)C3=O)N1C[C@@H]1N[C@@H]12 [MMC, mitomycin-C]
tumor volume compared to CTRL [1]: significant in reducing the tumor volume
average mouse body weights compared to ONB-MMC groups [2]: significantly lower
HIF-1 expression (IHC) [3]: significantly lower
VEGF expression (IHC) [4]: significantly lower
effect on MB49 cell viability (factorial design) ([5]; MMC 0.05-5 μg/mL, ONB 0.2-20 mg/mL): significant in decreasing cell viability
effect of ultrasound beam steering on cell viability ([5]; beam ON/OFF, MMC 0.5 μg/mL and ONB 2 mg/mL at medium concentration): No significant effect
